Assays:
[1] = system: Oral epithelial cells (OC3); experiment: MTT cell viability of mock- or HSV-1-infected oral epithelial cells (OC3); assay type: cell-based
Procedure: FIG. 4 provides Experimental conditions for evaluation of the effects of Antrodia camphorata fruit body extracts on oral epithelial cells during HSV-1 infection. Three experimental conditions, including no-treatment, pre-treatment and post-treatment were performed. Oral epithelial cells (OC3) were pre-treated with media only or media containing each Antrodia camphorata extracts for 2 hours, followed by HSV-1 inoculation. Cells were infected with HSV-1 viruses at multiplicity of infection (MOI) of 5 or mock infected for 1 hour at 37° C. for viral entry to occur. Antrodia camphorata extracts were not added during viral inoculation for 1 hour to avoid of its direct effects on virions. Mock- or HSV-1-infected cells were further incubated in the absence or presence of the drug for 19 hours.
The oral epithelial cell line (OC3) was used to determine the possible effects of Antrodia camphorata extracts on oral epithelial cells during HSV-1 infection. Cell monolayers were treated as illustrated in FIG. 4 (please also see details in the Materials and Methods section). Three experimental conditions, including no-treatment, pre-treatment and post-treatment were performed. Whether these Antrodia camphorata extracts have effects before or after viral infection were examined. The effects of Antrodia camphorata extracts on viral propagation (viral yields) in infected oral epithelial cells were examined. At 19-20 h post infection, viral yields in the supernatants were determined using the plaque assay. Viability of treated cells was also determined using the MTT assay for the mitochondrial dehydrogenase activity. Moreover, purified HSV-1 virions were directly treated with Antrodia camphorata extracts to examine whether Antrodia camphorata extracts exert anti-HSV-1 activity directly on virus particles before viral entry. […]
The mitochondrial dehydrogenase activity of treated cells was evaluated using the FBS-free medium containing 1 mg/ml of 3-[4,5-dimethylthiazol-2-yl]-2,5 diphenyltetrazolium bromide (MTT). […]

[2] = system: HSV-1 virions; experiment: Direct effect on infectivity of purified HSV-1 virions, plaque assay; assay type: cell-based, Herpes simplex virus type 1; conditions: purified virions incubated directly with drug 1 hour at 37° C., dose-dependent
Procedure: Purified HSV-1 was incubated directly with media containing various concentrations of each Antrodia camphorata extracts for 1 hour at 37° C. The viral titers were then examined in oral epithelial cells (OC3) using the plaque assay. The results shown are the mean±SEM from at least three independent experiments. Statistical differences are shown by different lowercase letters (analysis of variance, Tukey, α=0.05).
The oral epithelial cell line (OC3) was used to determine the possible effects of Antrodia camphorata extracts on oral epithelial cells during HSV-1 infection. Cell monolayers were treated as illustrated in FIG. 4 (please also see details in the Materials and Methods section). Three experimental conditions, including no-treatment, pre-treatment and post-treatment were performed. Whether these Antrodia camphorata extracts have effects before or after viral infection were examined. The effects of Antrodia camphorata extracts on viral propagation (viral yields) in infected oral epithelial cells were examined. At 19-20 h post infection, viral yields in the supernatants were determined using the plaque assay. Viability of treated cells was also determined using the MTT assay for the mitochondrial dehydrogenase activity. Moreover, purified HSV-1 virions were directly treated with Antrodia camphorata extracts to examine whether Antrodia camphorata extracts exert anti-HSV-1 activity directly on virus particles before viral entry.
Oral epithelial cells (OC3 cells) were infected with HSV-1 at multiplicity of infection (MOI) of 5 or mock infected for 1 h at 37° C. for viral entry to occur. Unbound viruses were removed. Infected cells were then overlaid with appropriate media and incubated at 37° C. The Antrodia camphorata fruit body extracts used were A2 (Antrodia camphorata extracts), A3 (dehydrosulphurenic acid), A4 (antcin K), A5 (versisponic acid), and A6 (dehydroeburicoic acid). […]
Viral titers in the supernatants after infection were determined using the plaque assay. […] Plaques were observed and counted under an inverted microscope. […]

[3] = system: HepG2.2.15 cells; experiment: MTT cell viability, HepG2.2.15 cells; conditions: 48 h, 50 μg/ml
[4] = system: HuS-E/2 immortalized human primary hepatocytes cells; experiment: MTT cell viability, HuS-E/2 cells; conditions: 48 h, 50 μg/ml

With `C=C(CC[C@@H](C)[C@H]1CC[C@H]2C3=C(C(=O)C[C@]12C)[C@@]1(C)CCC(O)[C@](C)(O)C1CC3O)C(C)C(=O)O` (stereo partly shown) [A4, antcin K] the “viability of mock-infected cells or HSV-1 infected cells” value [1] was “not affected evidently”, the “viral infectivity of treated HSV-1 virions” value [2] was “statistically significantly inhibited” and the “toxic effect (MTT cell viability)” value [3] was “little or no toxic effect”. The “toxic effect (MTT cell viability)” value [4] was “no toxic effect”.

Source: US11253527B2, “Method and composition for inhibiting virus infection” (priority 2019, dated 2022)
